target: T1, Flt-3 (Homo sapiens, UniProt P36888); experiment: Flt-3 kinase inhibition (GST-Flt-3, 33P incorporation into poly(Glu,Tyr)); format: biochemical
T1 construct: amino acids 563-993 of the cytoplasmic kinase domain of human Flt-3; made in house; host or cells: Sf9 insect cells (baculovirus, vector pFbacG01)
T1 sequence (P36888 563-993): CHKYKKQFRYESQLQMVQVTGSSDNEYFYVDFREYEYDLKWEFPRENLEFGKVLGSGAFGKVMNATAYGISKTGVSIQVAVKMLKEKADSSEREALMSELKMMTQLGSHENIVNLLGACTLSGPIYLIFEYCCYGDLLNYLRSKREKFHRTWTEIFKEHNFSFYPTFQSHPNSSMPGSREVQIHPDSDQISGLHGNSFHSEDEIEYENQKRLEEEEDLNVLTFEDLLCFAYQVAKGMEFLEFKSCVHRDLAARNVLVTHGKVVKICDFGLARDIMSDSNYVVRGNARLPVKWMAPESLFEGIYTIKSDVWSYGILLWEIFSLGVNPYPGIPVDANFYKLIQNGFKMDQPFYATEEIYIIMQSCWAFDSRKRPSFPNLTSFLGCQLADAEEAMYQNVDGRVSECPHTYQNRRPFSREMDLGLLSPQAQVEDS
Procedure, shortened: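 GST-fused human Flt-3 kinase domain (aa 563-993) from Sf9 cells assayed with 3 μg/mL poly(Glu,Tyr) 4:1, 8.0 μM ATP plus [γ-33P]ATP, Mn2+/Mg2+, pH 7.6, 20 min at ambient temperature. 33P incorporation counted on PVDF; IC50 by linear regression, duplicates at four concentrations (usually 0.01-10 μM).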

| SMILES | IC50 |
| --- | --- |
| Nc1cc(Oc2ccc(NC(=O)Nc3cc(CN4CCC4)cc(C(F)(F)F)c3)cc2)ncn1 [Example 4, N-[4-(6-Amino-pyrimidin-4-yloxy)-phenyl]-N′-(3-azetidin-1-ylmethyl-5-trifluoromethyl-phenyl)-urea] | 153 nM |
| CNc1cc(Oc2ccc(NC(=O)Nc3cc(CN4CCN(C(C)C)CC4)cc(C(F)(F)F)c3)cc2)ncn1 [Example 6, N-[4-(6-Methylamino-pyrimidin-4-yloxy)-phenyl]-N′-[3-(4-isopropylpiperazin-1-ylmethyl)-5-trifluoromethyl-phenyl]-urea] | 400 nM |
| CC(C)N1CCN(Cc2ccc(NC(=O)Nc3ccc(Oc4cc(N)ncn4)cc3)cc2C(F)(F)F)CC1 [Example 19, N-[4-(6-Amino-pyrimidin-4-yloxy)-phenyl]-N′-[4-(4-isopropylpiperazin-1-ylmethyl)-3-trifluoromethyl-phenyl]-urea] | 250 nM |
| CC(C)(C)N1CCN(Cc2ccc(NC(=O)Nc3ccc(Oc4ccnc(N)n4)cc3)cc2C(F)(F)F)CC1 [Example 50] | 120 nM |
| Cc1ncn(Cc2ccc(NC(=O)Nc3ccc(Oc4ccnc(N)n4)cc3)cc2C(F)(F)F)c1C [Example 51a.1, 1-[4-(2-Amino-pyrimidin-4-yloxy)-phenyl]-3-(4-(4,5-dimethyl-imidazol-1-ylmethyl)-3-trifluoromethyl-phenyl]-urea] | 85 nM |

Second part, the compound after the results:

| IC50 | SMILES |
| --- | --- |
| 120 nM | CN1CCN(Cc2ccc(NC(=O)Nc3ccc(Oc4ccnc(N)n4)cc3)cc2C(F)(F)F)CC1 [Example 52a, 1-[4-(2-amino-pyrimidin-4-yloxy)-phenyl]-3-[4-(4-methylpiperazin-1-ylmethyl)-3-trifluoromethyl-phenyl]-urea] |
| 29 nM | CCN1CCN(Cc2ccc(NC(=O)Nc3ccc(Oc4ccnc(N)n4)cc3)cc2C(F)(F)F)CC1 [Example 52c, 1-[4-(2-Amino-pyrimidin-4-yloxy)-phenyl]-3-[4-(4-ethyl-piperazin-1-ylmethyl)-3-trifluoromethyl-phenyl]-urea] |
| 120 nM | CNc1nccc(Oc2ccc(NC(=O)Nc3cc(N4CCN(C)CC4)cc(C(F)(F)F)c3)cc2)n1 [Example 53b, 1-[4-(2-Methylamino-pyrimidin-4-yloxy)-phenyl]-3-[3-(4-methyl-piperazin-1-yl)-5-trifluoromethyl-phenyl]-urea] |
| 190 nM | CNc1nccc(Oc2ccc(NC(=O)Nc3ccc(N4CCN(C)CC4)c(C(F)(F)F)c3)cc2)n1 [Example 53d, 1-[4-(2-Methylamino-pyrimidin-4-yloxy)-phenyl]-3-[4-(4-methyl-piperazin-1-yl)-3-trifluoromethyl-phenyl]-urea] |

Source: patent US20080312192A1, “Diaryl Urea Derivatives in the Treatment of Protein Kinase Dependent Diseases” (priority 2003, published 2008)
